According to patent US8114897B2, “Pesticidal composition and method for controlling a pest” (priority 2007, dated 2012):

Experiments:
[1] = test system: cockroaches Blattella germanica; assay: Referential Test Example: spray test on hidden cockroaches, mortality rate; assay type: in vivo; settings: 4.2 mL test formulation solution (ingredient concentrations % (w/v) per Table 2, in diethylene glycol monomethylether) sprayed in 70 cm cubic glass box; 10 cockroaches; transferred after 10 minutes; counted after 3 days; average of duplicate
Excerpt: Suitable amounts of the compound A and either (E)-N^1-[(6-chloro-3-pyridyl)methyl]-N^2-cyano-N^1-methylacetamidine (general name: acetamiprid, hereinafter, referred to as N-cyanoacetamidine compound) or 1-(6-chloro-3-pyridylmethyl)-N-nitroimidazolidin-2-ylidene amine (general name: imidacloprid, hereinafter referred to as nitroimidazoline compound) are mixed with diethylene glycol monomethylether, to give test formulation solutions containing the compound A and either the N-cyano acetamidine or nitroimidazoline compound at particular concentrations (see Table 2).
(§1) A triangular prism wooden container (regular triangle having a base of 3.5 cm and a height of 15 cm) containing 10 cockroaches Blattella germanica (5 males and 5 females) hidden therein was placed in the bottom center of a cubic glass box having a base of 70 cm. 4.2 Milliliters of the test formulation solution was sprayed on the glass box with a spray gun. In 10 minutes after the spraying, the cockroaches were transferred into a plastic container containing food and water and left there for 3 days. The number of live cockroaches was then counted, to give a mortality rate.

[2] = test system: cockroaches Blattella germanica; assay: Test Example: spray test on hidden cockroaches, mortality rate; assay type: in vivo; settings: 4.2 mL test formulation solution (ingredient concentrations % (W/V) per Table 1, in diethylene glycol monomethylether) sprayed in 70 cm cubic glass box; 10 cockroaches; transferred after 10 minutes; counted after 3 days; average of duplicate
Excerpt: Suitable amounts of 4-methoxymethyl-2,3,5,6-tetrafluorobenzyl(1R)-trans-3-(2-cyano-1-propenyl)-2,2-dimethylcyclopropanecarboxylate (isomer ratio, based on double bond, Z/E: approximately 2/1) (hereinafter, referred to as compound A) and/or clothianidin (manufactured by Sumika Takeda Agrochemicals Co.) are mixed with diethylene glycol monomethylether, to give a test formulation solution containing the compound A and/or clothianidin at particular concentrations (see Table 1).
as §1, with “cm square.” for “cm.”

SMILES	Mortality rate (%) [1] [%]	Mortality rate (%) [2] [%]
COCc1c(F)c(F)c(COC(=O)[C@@H]2[C@@H](C=C(C)C#N)C2(C)C)c(F)c1F [compound 7, 4-methoxymethyl-2,3,5,6-tetrafluorobenzyl(1R)-trans-3-(2-cyano-1-propenyl)-2,2-dimethylcyclopropanecarboxylate]	5	5
CN/C(=N\[N+](=O)[O-])NCc1cnc(Cl)s1 [compound 8, 1-(2-chloro-1,3-thiazolyl)methyl-3-methyl-2-nitroguanidine]		35
C/C(=N\C#N)N(C)Cc1ccc(Cl)nc1 [compound 12, (E)-N^1-[(6-chloro-3-pyridyl)methyl]-N^2-cyano-N^1-methylacetamidine]	5	
O=[N+]([O-])NC1=NCCN1Cc1ccc(Cl)nc1 [compound 13, 1-(6-chloro-3-pyridylmethyl)-N-nitroimidazolidin-2-ylidene amine]	15	
